Here are results for seven substances from paper PMC3859497, “Expression and Biological Activity of the Cystine Knot Bioinsecticide PA1b (Pea Albumin 1 Subunit b)” (PLoS ONE, 2013).

No end group written: not given here. A value given as a limit tells only on which side of the number the result lay.

Test [1] relates to Sitophilus oryzae sensitive weevil strain WAA42. The test is described as follows: Toxicity assay on weevils, sensitive strain WAA42 (survival analysis on food pellets). The class given is in vivo. The conditions noted are these: adult S. oryzae, sensitive strain WAA42, fed food pellets (wheat flour and water) incorporating peptide at 400 µg.g−1, days +/− SEM, LT50 calculated with SIMFIT. On the procedure:
(§1) Rice weevils (Sitophilus oryzae, Coleoptera) were reared on wheat seeds at 27.5°C and 70% RH. Tests and survival analysis were performed on adults feeding on food pellets (composed of wheat flour and water) incorporating PA1b (extracted from pea seeds for control tests or produced in tobacco) at 400 µg.g^−1, as described in detail in [10]. LT50 values were calculated using the SIMFIT software (http://www.simfit.man.ac.uk). The PA1b resistant strain, ISOR3, was reared in an identical way except that the weevils were fed on pea seeds rather than on wheat seeds.

In a further test the test system is Sf9 insect cells. The test can be described thus: Viability assay on Sf9 insect cells. The test is classed as cell-based, Spodoptera frugiperda. The conditions noted are these: Sf9 cell viability assay, nM (SEM), HPLC purified tobacco-expressed isoforms. On the procedure:
Spodoptera frugiperda Sf9 cells were grown and used for viability assays, according to [23].

For test [2], the system named is Sitophilus oryzae PA1b resistant strain ISOR3. The test can be described thus: Toxicity assay on weevils, PA1b resistant strain ISOR3. The test is classed as in vivo. Conditions: adult S. oryzae, PA1b resistant strain ISOR3, food pellets incorporating peptide at 400 µg.g−1. On the procedure: as §1

Regarding “ISCNGVCSPFDIPPCGSPLCRCIPAGLVIGNCRNPY G (bicyclic or more) [Isoform 3, pea PA1b isoform (GenBank AJ574796) expressed in tobacco]”, the “TL50 WAA42” value was “no mortality” in test [1] (listed as 3) and “completely inactive” in test [1] (listed as isoform 3). The “CL50 Sf9” value with Sf9 insect cells (listed as 3) is over 1500 nM; in the test on Sf9 insect cells (listed as isoform 3), “completely inactive”. Besides, the “TL50 ISOR3 (mortality on resistant strain)” value (“TL50 ISOR3” for short) in test [2] is “no mortality”.
As for “ASCNGVCSPFEMoxPPCGTSACRCIPVGLVVGYCRNPSG (bicyclic or more) [Isoform 5, pea PA1b isoform (GenBank M13709) expressed in tobacco]”, the “TL50 WAA42” value in test [1] is 9.35+−0.7 days. Further, the “CL50 Sf9” value in the test on Sf9 insect cells is 99 (31) nM. Besides, the “TL50 ISOR3” value in test [2] is reported as “no mortality”.
For “ASCNGVCSPFEMoxPPCGSSACRCIPVGLLIGYCRNPSG (bicyclic or more) [Isoform 1, pea PA1b isoform (GenBank AJ574795) expressed in N. benthamiana with the PA1-cassette]” the same measures were 9.2+−0.9 days, 82 (24) nM and “no mortality”.
In the same order, the values of “ASCNGVCSPFEMoxPPCGTSACRCIPVGLFIGYCRNPSG (bicyclic or more) [Isoform 2.1, pea PA1b isoform 2 (GenBank AJ574794), oxidized Met form, expressed in tobacco]” are 9.5+−0.7 days, 82 (36) nM and “no mortality”.
Turning to “ASCNGVCSPFEMoxPPCGSSACRCIPVGLVVGYCRHPSG (bicyclic or more) [Isoform 4, pea PA1b isoform (GenBank M13790 and AJ276882) expressed in tobacco]”, the “TL50 WAA42” value was 12.9+−1.1 days in test [1] (listed as 4) and 12.9 ± 1.1 days in test [1] (listed as isoform 4). For the same substance, in the test with Sf9 insect cells, the “CL50 Sf9” value worked out at 269 ± 50 nM. Moreover, in test [2], the “TL50 ISOR3” value is on record as “no mortality”.
In the case of “ASCNGVCSPFEMPPCGTSACRCIPVGLFIGYCRNPSG (also: bicyclic or more (positions not given here)) [Isoform 2.2, pea PA1b isoform 2 (GenBank AJ574794), non-oxidized Met form, expressed in tobacco]”, the “TL50 WAA42” value in test [1] was 8.9+−0.6 days. Also, the “CL50 Sf9” value in the test with Sf9 insect cells is 53 (16) nM. The “TL50 ISOR3” value in test [2] is reported as “no mortality”.
In the same order, the values of “ASCNGVCSPFEMoxPPCGTSACRCIPVGLVIGYCRNPSG (bicyclic or more) [Isoform 6, pea PA1b isoform (GenBank AJ574793) expressed in tobacco]” are 8.9+−0.7 days, 96 (22) nM and “no mortality”.
